Assay results reported in US20240216364A1, “STRONG POTENTIATION OF TLR3 AGONISTS EFFECTS USING FXR AGONISTS AS A COMBINED TREATMENT” (ENYO PHARMA, priority 2021, published 2024).

Tested on: HBV
Assay: HBV replication in HBV-infected fresh primary human hepatocytes (PHH): secreted HBsAg, HBeAg, HBV DNA
Type: cell-based, HBV (genotype D)
Conditions: FIG. 5
Procedure: Primary human hepatocytes (PHH) were freshly prepared from human liver resection obtained from the Centre Léon Bérard (Lyon) with French ministerial authorizations (AC 2013-1871, DC 2013-1870, AFNOR NF 96 900 sept 2011) as previously described (Lecluyse, E. L. & Alexandre, E. Methods Mol. Biol. Clifton NJ 640, 57-82 (2010)).
HBV stocks (genotype D, Genbank ID U95551) were prepared using the HepAD38 cell line according to previously described protocols (Ladner, S. K. et al. Antimicrob. Agents Chemother. 41, 1715-1720 (1997)). Supernatants containing HBV particles were clarified (0.45 μm filter) and concentrated with 8% PEG 8000 (Sigma-Aldrich). HBV DNA was quantified using the AmpliPrep/COBAS® TaqMan® HBV Test (Roche).
EYP-001 was provided by Enyo Pharma. A stock at 30 mM was constituted in DMSO, and working concentrations were obtained by dilution into the culture medium extemporaneously. Riboxxol was purchased from Riboxx (Germany). It is a synthetic double-stranded RNA (dsRNA), has a length of 50 bp, and is composed of cytosines, inosines and guanosines. It is a pure agonist of TLR3, with no leakiness toward RIG-1 or MDA5 (Lucifora J et al. Sci Rep. 2018 Mar. 29; 8(1):5390). A stock solution was constituted at 1 mg/mL in RNAse-free water. Poly(I:C) High and Low molecular weight were purchased from InvivoGen (USA). They are both double stranded RNA composed of inosine and cytosine (Low: 0.2 to 1 kb, High: 1.5 to 8 kb) and are TLR3 agonists. A stock solution at 1 mg/mL was constituted in RNAse-free water. Tropifexor, Cilofexor and Nidufexor were purchased from TargetMol (USA), GW4064 from Selleckchem (USA), Fexaramine and OCA from Euromedex (France). Those 6 FXR agonists were used as described below. All the stock solutions were at 10 mM (Cilofexor, Tropifexor, Nidufexor, GW4064) or 50 mM (Fexaramine, OCA) in DMSO.
HBs and HBe antigens secreted in cells supernatant were quantified, after required dilutions, with Autobio kits (AutoBio, China) according to manufacturer's protocol.
To determine the combined impact of FXR agonists and TLR3 agonists on HBV infection, in vitro infections were performed in primary human hepatocytes (PHH). PHH are naturally susceptible to infection with HBV virions produced in vitro, leading to very high levels of replication of the virus. Freshly prepared and seeded PHH were infected with HBV at a multiplicity of infection of 500 vge/cell. From day 4 to 12 post-infection, cells were treated with the FXR agonist EYP001 at 30 μM, or with a TLR3 agonist (Riboxxol) at 5 μg/mL, or with the combination of the FXR agonist EYP001 at 30 μM with a TLR3 agonist (Riboxxol) at 5 μg/mL, or with the vehicle. Supernatants were harvested at day 12 for secreted HBV DNA and secreted antigens (HBsAg and HBeAg) quantification. Results are expressed as the mean+SD of two independent experiments, each performed with at least three biological replicates. […]
A third experiment was conducted the same way, in the same model of HBV infected PHH. In this experiment, 6 different FXR agonists (Tropifexor at 1 μM, Cilofexor at 10 μM, Nidufexor at 10 μM, GW4064 at 10 μM, Fexaramine at 10 μM and OCA at 10 μM) were combined with the TLR3 agonist Riboxxol at 5 μg/mL.

[1] = FXR agonist 10 μM combined with Riboxxol 5 μg/mL
[2] = FXR agonist 1 μM combined with Riboxxol 5 μg/mL

SMILES | HBeAg level, effect of the combination versus the TLR3 agonist alone [1] | HBsAg level, effect of the combination versus the TLR3 agonist alone [1] | HBeAg level, effect of the combination versus the TLR3 agonist alone [2] | HBsAg level, effect of the combination versus the TLR3 agonist alone [2]
O=C(O)c1ccnc(N2CC(O)(c3ccc(OCc4c(-c5c(Cl)cccc5Cl)noc4C4CC4)cc3Cl)C2)c1 [Cilofexor, 2-[3-[2-Chloro-4-[[5-cyclopropyl-3-(2,6-dichlorophenyl)-4-isoxazolyl]methoxy]phenyl]-3-hydroxy-1-azetidinyl]-4-pyridinecarboxylic acid] | improve the antiviral effects | improve the antiviral effects |  | 
COC(=O)/C=C/c1cccc(N(Cc2ccc(-c3ccc(N(C)C)cc3)cc2)C(=O)C2CCCCC2)c1 [Fexaramine] | improve the antiviral effects | improve the antiviral effects |  | 
CC(C)c1onc(-c2c(Cl)cccc2Cl)c1COc1ccc(/C=C/c2cccc(C(=O)O)c2)c(Cl)c1 [GW4064, 3-[2-[2-Chloro-4-[[3-(2,6-dichlorophenyl)-5-(1-methylethyl)-4-isoxazolyl]methoxy]phenyl]ethenyl]benzoic acid] | improve the antiviral effects | improve the antiviral effects |  | 
Cn1nc(C(=O)N(Cc2ccccc2)Cc2ccc(C(=O)O)cc2)c2c1-c1cc(Cl)ccc1OC2 [Nidufexor, 4-[(N-benzyl-8-chloro-1-methyl-1,4-dihydro[1]benzopyrano[4,3-c]pyrazole-3-carboxamido)methyl]benzoic acid] | improve the antiviral effects | improve the antiviral effects |  | 
CC[C@H]1[C@@H](O)[C@@H]2[C@H](CC[C@]3(C)[C@@H]([C@H](C)CCC(=O)O)CC[C@@H]23)[C@@]2(C)CC[C@@H](O)C[C@@H]12 [OCA, Cholan-24-oic acid, 6-ethyl-3,7-dihydroxy-, (3α,5β,6α,7α)-] | improve the antiviral effects | improve the antiviral effects |  | 
O=C(O)c1cc(F)c2nc(N3[C@@H]4CC[C@H]3C[C@@H](OCc3c(-c5ccccc5OC(F)(F)F)noc3C3CC3)C4)sc2c1 [Tropifexor, 2-(3-((5-cyclopropyl-3-(2-(trifluoromethoxy)phenyl)isoxazol-4-yl)methoxy)-8-azabicyclo[3.2.1]octan-8-yl)-4-fluorobenzo[d]thiazole-6-carboxylic acid] |  |  | improve the antiviral effects | improve the antiviral effects
